Key:
Type in all cases: in vivo
Spodoptera frugiperda = Spodoptera frugiperda spray test; settings: in Zea mays, 168 h, read-out: activity (mortality)
How it was run: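 Larvae of fall armyworm placed on dried maize leaf sections previously sprayed with emulsified compound (acetone/DMF solvent, water with 1000 ppm emulsifier). Percent of caterpillars killed recorded on day 7, 0–100% scale.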

Boophilus microplus = Boophilus microplus injection test (BOOPMI Injection); settings: Rhipicephalus microplus, 168 h, injection into adult engorged female ticks, egg deposition after 7 days, read-out: activity (efficacy, infertile eggs); for pest or weed control at 0.004 mg: 4 μg/animal; for pest or weed control at 0.02 mg: 20 μg/animal
How it was run: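 Adult engorged female ticks (5 per group) injected into the abdomen with 1 μL compound in DMSO, then held in a climate chamber. Fertile egg deposition scored after 7 days, with unclear eggs kept until hatching (~42 days). Efficacy 100% = all eggs infertile, 0% = all fertile.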

Ctenocephalides felis [1] = assay: Ctenocephalides felis oral test (CTECFE); settings: 48 h, 100 ppm in cattle blood, after 2 days
How it was run: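 About 20 adult unfed fleas fed through parafilm on cattle blood held at 37° C and dosed with compound from a DMSO concentrate; flea chamber at room temperature. Percent mortality scored after 2 days.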

Rhipicephalus sanguineus = Rhipicephalus sanguineus in-vitro contact test, adult brown dog ticks (RHIPSA Contact); settings: 5 μg/cm^2 (=500 g/ha), after 48 hours, read-out: activity (efficacy, ticks dead or moribund)
Method: Rhipicephalus sanguineus—in-Vitro Contact Tests with Adult Brown Dog Ticks (RHIPSA Contact)
(§1) 9 mg compound is solved in 1 ml acetone and diluted with acetone to the desired concentration. 250 μl_, of the test solution is filled in 25 ml glass test tubes and homogeneously distributed on the inner walls by rotation and tilting on a shaking device (2 h at 30 rpm). With a compound concentration of 900 ppm, an inner surface of 44.7 cm^2 and a homogeneous distribution, a dose of 5 μg/cm^2 is achieved.
(§2) After the solvent has evaporated, each test tube is filled with 5-10 adult brown dog ticks (Rhipicephalus sanguineus), closed with a perforated lid and incubated in a lying position at room temperature and relative humidity. After 48 hours efficacy is determined. The ticks are patted on the ground of the tubes and are incubated on a heating plate at 45-50° C. for at most 5 minutes Immotile or uncoordinated moving ticks, which are not able to escape the heat by climbing upwards, are marked as dead or moribund.
An efficacy of 100% means all ticks are dead or moribund; 0% means no ticks are dead or moribund.

[2] = system: Rhipicephalus microplus (strain Parkhurst, resistant against synthetic pyrethroids); assay: Rhipicephalus microplus in-vitro contact test, larval cattle tick (BOOPMI Contact); settings: 5 μg/cm^2 (=500 g/ha), after 48 hours, read-out: activity (efficacy, larvae dead or moribund)
How it was run: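 Efficacy, expressed as percentage of larvae dead or moribund, is judged by negative geotactic behaviour 48 h after larvae (20-50 per tube) enter tubes whose inner walls carry a dried acetone film of compound, 5 μg/cm² at 900 ppm. Incubation: horizontal, 27 °C, 85% relative humidity.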

Diabrotica balteata = Diabrotica balteata spray test; settings: 168 h, wheat seeds, after 7 days, read-out: activity (efficacy, seedlings grown); for pest or weed control at 160 µg/disc, 500 g/ha: 500 g/ha (=160 μg/well)
How it was run: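 Efficacy was read 7 days after infesting each unit with 10–20 banded cucumber beetle larvae, as % of seedlings growing like untreated, uninfested controls. Before infestation, wheat seeds germinated 1 day on agar (5 per well) were sprayed with the active ingredient. The active was formulated in acetone/DMF and diluted in water containing emulsifier.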

Ctenocephalides felis [3] = assay: Ctenocephalides felis in-vitro contact test, adult cat flea; settings: 5 μg/cm^2 (=500 g/ha), after 48 hours, read-out: activity (efficacy, fleas dead or moribund)
Method: Ctenocephalides felis—in-Vitro Contact Tests Adult Cat Flea
as §1, with “[…]” for “250 μl_,”
as §2, with “cat fleas (Ctenocephalides felis),” for “brown dog ticks (Rhipicephalus sanguineus),”, “fleas” for “ticks”, “fleas,” for “ticks,”
An efficacy of 100% means all fleas are dead or moribund; 0% means no fleas are dead or moribund.

| Compound | mortality at 100 g/ha (Spodoptera frugiperda) | mortality at 500 g/ha (Spodoptera frugiperda) | pest or weed control at 0.004 mg (Boophilus microplus) | pest or weed control at 0.02 mg (Boophilus microplus) | mortality at 100 ppm (Ctenocephalides felis [1]) | pest or weed control at 5 µg/cm2, 5 µg/cm2 (Rhipicephalus sanguineus) | pest or weed control at 5 µg/cm2 [2] | pest or weed control at 100 g/ha (Diabrotica balteata) | pest or weed control at 160 µg/disc, 500 g/ha (Diabrotica balteata) | pest or weed control at 5 µg/cm2, 5 µg/cm2 (Ctenocephalides felis [3]) |
| --- | --- | --- | --- | --- | --- | --- | --- | --- | --- | --- |
| C[C@H](Nc1nc2cc(C(F)(F)F)cc(Br)c2o1)c1ncnn1-c1ncccn1 [Example I-034] | 100% | 100% | 100% | 100% | 100% | 100% | 90% | 100% | 80% | – |
| C[C@H](Nc1nc2cc(C(F)(F)F)cc(Cl)c2o1)c1ncnn1-c1cnccn1 [Example I-039, 7-chloro-N-{(1S)-1-[1-(pyrazin-2-yl)-1H-1,2,4-triazol-5-yl]ethyl}-5-(trifluoromethyl)-1,3-benzoxazol-2-amine] | – | 100% | 100% | 100% | 100% | 100% | 90% | 100% | 100% | – |
| C[C@H](Nc1nc2cc(C(F)(F)F)cc(Cl)c2o1)c1ncnn1-c1ccncn1 [Example I-047, 7-Chlor-N-{(1S)-1-[1-(pyrimidin-4-yl)-1H-1,2,4-triazol-5-yl]ethyl}-5-(trifluormethyl)-1,3-benzoxazol-2-amin] | 100% | 100% | 100% | 100% | – | 100% | 100% | 100% | 100% | – |
| C[C@H](Nc1nc2cc(C(F)(F)F)cc(Br)c2o1)c1ncnn1-c1ccc(C#N)cn1 [Example I-055, 6-[5-[(1S)-1-{[7-Brom-5-(trifluormethyl)-1,3-benzoxazol-2-yl]amino}ethyl]-1H-1,2,4-triazol-1-yl}nicotinonitril] | 100% | 100% | 80% | 100% | – | 100% | 100% | 100% | 100% | – |
| C[C@H](Nc1nc2cc(S(F)(F)(F)(F)F)cc(Cl)c2o1)c1ncnn1-c1ncc(Br)cn1 [Example I-083, N-{(1S)-1-[1-(5-Brompyrimidin-2-yl)-1H-1,2,4-triazol-5-yl]ethyl}-7-chlor-5-(pentafluor-lambda^6-sulfanyl)-1,3-benzoxazol-2-amin] | 100% | – | – | – | – | 100% | 100% | 80% | – | 80% |
| CC(Nc1nc2cc(C#N)cc(Cl)c2o1)c1ncnn1-c1ncccn1 (centres unmarked) [Example I-084, 7-Chlor-2-({1-[1-(pyrimidin-2-yl)-1H-1,2,4-triazol-5-yl]ethyl}amino)-1,3-benzoxazol-5-carbonitril] | – | – | 100% | 100% | – | 80% | 80% | – | 100% | 100% |
| C[C@H](Nc1nc2cc(Cl)cc(C(F)(F)F)c2o1)c1ncnn1-c1ncccn1 [Example I-090, 5-Chlor-N-{(1S)-1-[1-(pyrimidin-2-yl)-1H-1,2,4-triazol-5-yl]ethyl}-7-(trifluormethyl)-1,3-benzoxazol-2-amin] | – | 100% | 80% | 100% | – | 100% | 100% | – | 100% | – |
| C[C@H](Nc1nc2cc(Cl)c(C(F)(F)F)cn2n1)c1ncnn1-c1ncccn1 [Example I-097, 7-chloro-N-{(1S)-1-[1-(pyrimdin-2-yl)-1H-1,2,4-triazol-5-yl]ethyl}-6-(trifluoromethyl)[1,2,4]triazolo[1,5-a]pyridin-2-amine] | – | – | – | – | – | 80% | 100% | – | – | 100% |

Reference: patent US12384769B2, “Heteroaryl-substituted aminoalkyl azole compounds as pesticides” (Elanco Animal Health GmbH, priority 2019, dated 2025)
